From the NIST ThermoML archive (doi:10.1021/je050498q)

Test: refractive index (Na D-line) (dimensionless); wn = mass fraction of the nth substance listed
Conditions: 101 kPa, Liquid

O=C([O-])[C@H](O)[C@@H](O)C(=O)[O-].[Na+].[Na+] [disodium L-tartrate] + O
refractive index
Conditions	298.15 K	308.15 K	318.15 K
w1 = 0.0099	1.3343	1.3331	1.3318
w1 = 0.0192	1.336	1.3346	1.3335
w1 = 0.0282	1.3373	1.3363	1.3351
w1 = 0.0371	1.3389	1.3378	1.3367
w1 = 0.046	1.3405	1.3393	1.3381
w1 = 0.0547	1.3418	1.3408	1.3396
w1 = 0.0625	1.3432	1.3421	1.341
w1 = 0.0714	1.3447	1.3435	1.3425
w1 = 0.0793	1.346	1.3449	1.3439
w1 = 0.0872	1.3475	1.3462	1.3452
w1 = 0.0948	1.3486	1.3475	1.3464
w1 = 0.1026	1.3502	1.3488	1.3479
w1 = 0.1098	1.3511	1.35	1.349
w1 = 0.1169	1.3526	1.3512	1.3502
w1 = 0.1223	1.3535	1.3523	1.3513
w1 = 0.1314	1.3551	1.3537	1.3526
w1 = 0.1361	1.3557	1.3545	1.3536
w1 = 0.1437	1.3572	1.356	1.3548
w1 = 0.1514	1.3584	1.3572	1.3562
w1 = 0.1577	1.3594	1.3582	1.3573
w1 = 0.1646	1.3607	1.3596	1.3587
w1 = 0.1697	1.3616	1.3606	1.3595
w1 = 0.1769	1.363	1.3617	1.3607
w1 = 0.1825	1.3639	1.3627	1.3616
w1 = 0.1886	1.3649	1.3637	1.3627
w1 = 0.1941	1.366	1.3646	1.3636
w1 = 0.1996	1.3668	1.3655	1.3644
w1 = 0.2048	1.3677	1.3664	1.3654
w1 = 0.2116	1.3689	1.3675	1.3666
w1 = 0.2167	1.3697	1.3685	1.3675
w1 = 0.2221	1.3707	1.3696	1.3684
w1 = 0.2281	1.3719	1.3707	1.3695
w1 = 0.2328	1.3728	1.3715	1.3703
w1 = 0.243	1.3744	1.3731	1.372
w1 = 0.2493	1.3755	1.3744	1.3732
w1 = 0.2577	1.377	1.3759	1.3749
w1 = 0.2622	1.3778	1.3765	1.3757
w1 = 0.2681	1.379	1.3777	1.3765
w1 = 0.2757	1.3802	1.3791	1.3778
w1 = 0.2859	1.3821	1.3809	1.3798
w1 = 0.2979	1.384	1.3829	1.3819
w1 = 0.3085	1.3861	1.3848	1.3841
